# Laboratory results as given in US8232063B2, “H+-gated ion channel” (University of Utah Research Foundation, priority 2004, dated 2012).
# “Also recorded” adds a separate entry of the source. Like-named read-outs stand apart in the source and are kept apart here.
# Experiments:
# [1] = system: posterior body contraction; experiment: Posterior body contraction of the defecation cycle in vivo; set-up: species or system C. elegans; details: 100 mM, pH 7.2, injected into pseudocoelomic space
# Protocol: To determine if H^+ ions are required to initiate a posterior body contraction endogenous acidification of the pseudocoelomic space is blocked. For example, 100 mM Bis-Tris Propane buffered saline (pH 7.2) is injected into the pseudocoelomic space of an animal and defecation cycles postinjection observed. […] The injected animals should phenocopy both pbo-4 and pbo-5 mutants.
# Alternatively, a caged buffer is used to assay the requirement for H^+ activation of PBO-5/PBO-8 receptors in vivo. For example, animals are injected with a caged buffer (Molecular Probes) and the buffer uncaged, by flash photolysis, as a posterior body contraction is about to occur. An advantage of the latter scheme is that an animal can be injected first and then observed for a number of cycles to determine if it retains normal defecation cycles, and in particular posterior body contractions. After quantification of a number of defecation cycles, the buffer is uncaged and the animal observed for a specific loss of posterior body contraction. Li addition, the inverse experiment, where caged protons are injected, may be conducted to elicit an out of phase posterior body contraction by uncaging the protons during the intercycle.
# The posterior body contraction occurs via a calcium-regulated mechanism. […]
# [2] = system: PBO-5/PBO-8 receptors; experiment: Two-electrode voltage clamp of Xenopus oocytes coinjected with PBO-5 and PBO-8 cRNA; type: cell-based, C. elegans; details: for run-down (use-dependent block) of H+-evoked current by the buffer of the extracellular solution: repeated pH 6.8 test pulses
# Protocol: (§1) Capped RNA was prepared using the T7 mMessage mMachine kit (Ambion). Xenopus oocytes were collected and coinjected with 25 ng each of PBO-5 and PBO-8 cRNA and two-electrode voltage clamp recordings were performed 3-5 days post-injection. The standard bath solution for dose-response and control I-V experiments was Ringer's (in mM): 115 NaCl, 1.8 […], 10 Bis-Tris Propane (pH 7.4 Acetic acid). For dose-response experiments, each oocyte was subjected to a 5 second application of test pH (7.0 - 5.0) with 2 minutes of pH 7.4 wash between test applications.
# Ion selectivity experiments: All points are responses to test pulse applications of pH 6.8 for 5 seconds. The reversal potential of PBO-5/PBO-8 expressing oocytes were first determined in standard Ringer's (in mM): 115 NaCl, 1.0 CaCl2, 10 Bis-Tris Propane (pH 7.4, acetic acid). For chloride permeability a simplified solution was used, chloride-free (in mM): 115 Na^+ gluconate, 1.0 CaCl2, 10 Bis-Tris Propane (pH 7.4 acetic acid). For Na^+ permeability a simplified solution was used, Na^+ free (in mM): 115 mM N-methyl D-glucamine (NMDG), 1.8 CaCl2, 10 Bis-Tris Propane (pH 7.4 acetic acid)). All solutions were brought to pH by addition of NaOH or acetic acid. To determine K^+ permeability, I-V experiments were performed in K^+ Ringer's (in mM): 115 K^+-gluconate, 1.0 CaCl2, 10 Bis-Tris Propane (pH=7.4 acetic acid). To determine Ca^2+ permeability extracellular Na^+ was lowered to 90 mM and extracellular CaCl2 was increased to 3 mM and 10 mM, compare to 1 mM Ca^2+ control. To better resolve calcium permeability, the Na^+ free solution was used except CaCl2 was increased ten-fold, 18 mM CaCl2 (in mM): 115 NMDG, 18 CaCl2, 10 Bis-Tris Propane, (pH 7.4 acetic acid). Osmolarity was measured for each solution and was maintained at 240 mOsm by the addition of sucrose. All recordings were done at room temperature. We used 3M KCl filled electrodes with a resistance between 1-3 MΩ. We used a 3M KCl agar bridge to minimize liquid junction potentials, and all liquid junctions potentials arising at the tip of the recording electrode were corrected online.
# Data analysis. Data acquisition and analysis were performed using Axograph (Axon Instruments) software, and curve fitting and statistical analysis were performed with Prism (Graphpad). Dose-response curves from individual oocytes were normalized to the maximum and minimum values and averaged for at least eleven oocytes. Normalized data were fit to the four-parameter equation derived from the Hill equation: Y=Min+(Max−Min)/(1+10(Log EC50-X)(nH)), where Max is the maximal response, Min is the response at the lowest drug concentration, X is the logarithm of agonist concentration, EC50 is the half-maximal response, and nH is the Hill coefficient. Error bars represent the standard error of the mean.
# [3] = system: PBO-8 homomers; experiment: Two-electrode voltage clamp of Xenopus oocytes injected with PBO-8 cRNA (homomers); type: cell-based, C. elegans
# [4] = biological target: T1, PBO-5 homomers (Caenorhabditis elegans, UniProt G5ECT0); experiment: Two-electrode voltage clamp of Xenopus oocytes injected with PBO-5 cRNA (homomers); type: cell-based, C. elegans
# T1 construct: cloned into the pCR2.1 TA cloning vector (Invitrogen) and a full length clone pPD68 was generated; expressed in transfected cells; host or cells: Xenopus oocytes injected with PBO-5 cRNA (pSGEM-based plasmid pAB20)
# T1 sequence (G5ECT0 22-504 isoform G5ECT0-2 limits assumed): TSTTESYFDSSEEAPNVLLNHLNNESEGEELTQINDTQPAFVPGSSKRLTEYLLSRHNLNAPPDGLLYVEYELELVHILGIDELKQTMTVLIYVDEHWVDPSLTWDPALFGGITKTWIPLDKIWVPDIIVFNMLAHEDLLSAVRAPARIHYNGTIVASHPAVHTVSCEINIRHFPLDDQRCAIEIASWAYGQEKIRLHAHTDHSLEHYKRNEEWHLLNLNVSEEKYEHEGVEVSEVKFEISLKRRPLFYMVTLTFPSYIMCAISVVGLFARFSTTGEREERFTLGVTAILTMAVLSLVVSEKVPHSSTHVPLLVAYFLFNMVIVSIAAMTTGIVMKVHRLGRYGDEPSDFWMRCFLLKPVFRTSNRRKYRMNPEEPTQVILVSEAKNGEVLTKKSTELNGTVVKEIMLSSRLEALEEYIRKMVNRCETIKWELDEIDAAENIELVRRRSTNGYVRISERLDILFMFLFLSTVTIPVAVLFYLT
# Protocol: as §1
# To determine if PBO-5 can form a homo-oligomeric receptor, we injected PBO-5 cRNA in Xenopus oocytes. […] Two-electrode voltage clamp recordings were used to assay receptor functionality.
# To determine if PBO-5 and PBO-8 can co-assemble to form a functional receptor, we injected PBO-5 and PBO-8 cRNA into Xenopus oocytes. […] To determine the possible signal that mediates posterior body contraction we examined the pbo-4 gene.
# [5] = Xenopus oocytes, two-electrode voltage clamp
compound,measurement,setting,value
"OCC(CO)(CO)NCCCNC(CO)(CO)CO [Bis-Tris Propane, 1,3-Bis[tris(hydroxymethyl)methylamino) propane]",posterior body contraction after injection of buffered saline into the pseudocoelomic space,[1],fail to initiate a posterior body contraction
same,run-down (use-dependent block) of H+-evoked current by the buffer of the extracellular solution,[2],did not cause current run-down
[Ca+2] [Ca^2+],maximal activation of PBO-5/PBO-8 on increasing extracellular Ca2+,[2]; pH 6.0,no effect on maximal activation
same,effect of extracellular Ca2+ on gating of PBO-5/PBO-8 (mode of action),"[2]; pH 6.8, 10.0 mM vs 1.0 mM Ca2+",inhibit gating; also recorded: competitive antagonist
same,H-evoked responses compared to 1 mM Ca2+ control,"[2]; pH 7.0 and 6.8, Ca2+ increased to 3 mM and 10 mM",significantly reduced
"NCCCC(=O)O [GABA, γ-aminobutyric acid]",co-activation: pH 6.8 plus ligand compared with pH 6.8 only application,"[2]; 1 mM ligand, pH 6.8",not significantly different
same,activation of PBO-5/PBO-8 heteromers,[2]; [5],lacked the ability to activate
same,activation of PBO-8 homomers,[3],lacked the ability to activate
same,activation of PBO-5 homomers (functional response),[4],failed to elicit a functional response; also recorded: lacked the ability to activate
"O=S(=O)(O)CCN1CCN(CCO)CC1 [HEPES, N-2-hydroxyethylpiperazine-N′-2-ethanesulfonic acid]",run-down (use-dependent block) of H+-evoked current by the buffer of the extracellular solution,[2],very rapid rundown; also recorded: inhibitory to the receptor
[1H+] [H^+],pH50,[2]; 1 mM Ca2+ control conditions,6.88
same,pH50,[2]; 10 mM Ca2+ test conditions,6.59
same,activation of PBO-5/PBO-8 heteromers,[2]; [5],sufficient to activate
same,pH of 10% maximal activation,[2]; perfusion buffer pH 7.4,~7.0
same,pH50 (half-maximal activation),"[2]; voltage-clamped at -60 mV, test pH 5 seconds, standard Ringer's, n=18",6.83±0.01
"O=S(=O)(O)CCN1CCOCC1 [MES, 2-(N-Morpholino)-ethanesulfonic acid]",run-down (use-dependent block) of H+-evoked current by the buffer of the extracellular solution,[2],did not cause current run-down
N=C(N)NC(=O)c1nc(Cl)c(N)nc1N [amiloride],block of PBO-5/8 gating,[2]; 1 mm amiloride,did not result current block
N[C@@H](CCC(=O)O)C(=O)O [glutamate],activation of PBO-5/PBO-8 heteromers,[2]; [5],lacked the ability to activate
same,activation of PBO-8 homomers,[3],lacked the ability to activate
same,activation of PBO-5 homomers (functional response),[4],lacked the ability to activate
NCC(=O)O [glycine],activation of PBO-5/PBO-8 heteromers,[2],lacked the ability to activate
same,activation of PBO-8 homomers,[3],lacked the ability to activate
same,activation of PBO-5 homomers (functional response),[4],failed to elicit a functional response; also recorded: lacked the ability to activate
NCCc1c[nH]c2ccc(O)cc12 [serotonin],activation of PBO-5/PBO-8 heteromers,[2]; [5],lacked the ability to activate
same,activation of PBO-8 homomers,[3],lacked the ability to activate
same,activation of PBO-5 homomers (functional response),[4],failed to elicit a functional response
same,activation of PBO-5 homomers (functional response),[4]; listed as 5-HT,lacked the ability to activate
d-tubocurare,pharmacological block of PBO-5/8 responses,[2]; cholinergic antagonist applied to PBO-5/8 expressing cells,all attempts to pharmacologically block PBO-5/8 responses failed
